Experimental data published in PubChem BioAssay (NCI).
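96-well plates; 48 h exposure; 5 concentrations. Endpoints by linear interpolation between flanking doses. Not reached: highest tested concentration assigned. GI50: concentration for 50% inhibition of growth. The concentration for full growth arrest is given as TGI.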

Columns and labels:
Experiment in all cases: NCI tumour cell line growth inhibition, 48 h
786-0 renal = test system: 786-0 renal
COLO 205 colon = test system: COLO 205 colon
HOP-92 NSCLC = test system: HOP-92 NSCLC
K-562 leukemia = test system: K-562 leukemia
MOLT-4 leukemia = test system: MOLT-4 leukemia
OVCAR-4 ovarian = test system: OVCAR-4 ovarian
SK-MEL-28 melanoma = test system: SK-MEL-28 melanoma
SW-620 colon = test system: SW-620 colon
U251 CNS = test system: U251 CNS
UACC-62 melanoma = test system: UACC-62 melanoma

CCC1(OC(=O)CN2CCN(CCO)CC2)C(=O)OCc2c1cc1n(c2=O)Cc2cc3ccccc3nc2-1 (stereo not given)
TGI (786-0 renal): 2.53 µM | TGI (COLO 205 colon): 15.5 µM | TGI (HOP-92 NSCLC): 6.96 µM | TGI (K-562 leukemia): 26.2 µM | TGI (MOLT-4 leukemia): 1.59 µM | TGI (OVCAR-4 ovarian): 17 µM | TGI (SK-MEL-28 melanoma): 39.2 µM | TGI (SW-620 colon): 10.3 µM | TGI (U251 CNS): 2.41 µM | TGI (UACC-62 melanoma): 1.05 µM

COc1ccc(/C=C2\CN(C(=O)CCN3CCC(=NO)CC3)C/C(=C\c3ccc(OC)cc3)C2=O)cc1
GI50 (COLO 205 colon): 2.04 µM | TGI (COLO 205 colon): 4.11 µM | GI50 (HOP-92 NSCLC): 2.34 µM | TGI (HOP-92 NSCLC): 9.32 µM | GI50 (K-562 leukemia): 1.2 µM | TGI (K-562 leukemia): > 100 µM | GI50 (MOLT-4 leukemia): 2.95 µM | TGI (MOLT-4 leukemia): 26.9 µM | GI50 (OVCAR-4 ovarian): 3.34 µM | TGI (OVCAR-4 ovarian): 17.7 µM | GI50 (SK-MEL-28 melanoma): 2 µM | TGI (SK-MEL-28 melanoma): 4.17 µM | GI50 (SW-620 colon): 1.39 µM | TGI (SW-620 colon): 3.14 µM | GI50 (U251 CNS): 1.74 µM | TGI (U251 CNS): 3.47 µM | GI50 (UACC-62 melanoma): 1.89 µM | TGI (UACC-62 melanoma): 4.38 µM

COc1ccccc1/C=C1\Sc2scc(-c3cccc([N+](=O)[O-])c3)[n+]2C1=O
TGI (786-0 renal): 9.63 µM | TGI (COLO 205 colon): 5.19 µM | TGI (HOP-92 NSCLC): 16.6 µM | TGI (K-562 leukemia): > 100 µM | TGI (MOLT-4 leukemia): 3.44 µM | TGI (OVCAR-4 ovarian): 43.2 µM | TGI (SK-MEL-28 melanoma): 65.2 µM | TGI (SW-620 colon): > 36.4 µM | TGI (U251 CNS): 39.6 µM | TGI (UACC-62 melanoma): 22.6 µM

CSC(SC)=C1C(=O)NN=C1C
TGI (786-0 renal): > 100 µM | TGI (COLO 205 colon): > 100 µM | TGI (HOP-92 NSCLC): > 100 µM | TGI (K-562 leukemia): > 100 µM | TGI (MOLT-4 leukemia): > 100 µM | TGI (OVCAR-4 ovarian): > 100 µM | TGI (SK-MEL-28 melanoma): > 100 µM | TGI (SW-620 colon): > 100 µM | TGI (U251 CNS): > 100 µM | TGI (UACC-62 melanoma): > 100 µM

COCCOCN(C(=O)C1=CCC2(CC1)OCCO2)c1ccccc1I
TGI (786-0 renal): > 50 µM | TGI (COLO 205 colon): > 50 µM | TGI (HOP-92 NSCLC): > 50 µM | TGI (MOLT-4 leukemia): > 50 µM | TGI (OVCAR-4 ovarian): > 50 µM | TGI (SK-MEL-28 melanoma): > 50 µM | TGI (SW-620 colon): > 50 µM | TGI (U251 CNS): > 50 µM | TGI (UACC-62 melanoma): > 50 µM

CCOc1ccc2ccccc2c1NC1=NCCO1
TGI (786-0 renal): > 100 µM | TGI (COLO 205 colon): > 100 µM | TGI (HOP-92 NSCLC): 42.2 µM | TGI (K-562 leukemia): 61.3 µM | TGI (MOLT-4 leukemia): 84 µM | TGI (OVCAR-4 ovarian): > 100 µM | TGI (SK-MEL-28 melanoma): > 100 µM | TGI (SW-620 colon): > 100 µM | TGI (U251 CNS): > 100 µM | TGI (UACC-62 melanoma): > 100 µM

S=C(NNC1=NCCCN1)Nc1ccccc1
TGI (786-0 renal): > 100 µM | TGI (COLO 205 colon): > 100 µM | TGI (HOP-92 NSCLC): > 100 µM | TGI (K-562 leukemia): > 100 µM | TGI (MOLT-4 leukemia): > 100 µM | TGI (OVCAR-4 ovarian): > 100 µM | TGI (SK-MEL-28 melanoma): > 100 µM | TGI (SW-620 colon): > 100 µM | TGI (U251 CNS): > 100 µM | TGI (UACC-62 melanoma): > 100 µM

CCOC(=O)C1(Cc2ccccc2)Cc2cc3c(cc2C1)CCC3
TGI (786-0 renal): > 100 µM | TGI (COLO 205 colon): 45.2 µM | TGI (K-562 leukemia): > 100 µM | TGI (MOLT-4 leukemia): 58.6 µM | TGI (OVCAR-4 ovarian): 98.4 µM | TGI (SK-MEL-28 melanoma): > 100 µM | TGI (SW-620 colon): > 100 µM | TGI (U251 CNS): > 100 µM | TGI (UACC-62 melanoma): > 100 µM

CSCCC(NCc1c(O)ccc2ccc(=O)oc12)C(=O)O (stereo not given)
TGI (786-0 renal): > 100 µM | TGI (COLO 205 colon): > 100 µM | TGI (HOP-92 NSCLC): > 100 µM | TGI (K-562 leukemia): > 100 µM | TGI (MOLT-4 leukemia): > 100 µM | TGI (OVCAR-4 ovarian): > 100 µM | TGI (SK-MEL-28 melanoma): > 100 µM | TGI (SW-620 colon): > 100 µM | TGI (U251 CNS): > 100 µM | TGI (UACC-62 melanoma): > 100 µM

CC(CC(=O)CO[C@H]1[C@H](O)[C@@H](O)[C@@H](O)[C@@H]2NC(=O)c3c(cc4c(c3O)OCO4)[C@H]21)OC1OC(CO)C(O)C(O)C1O (stereo not given in full)
TGI (786-0 renal): 2.92 µM | TGI (COLO 205 colon): 1.16 µM | TGI (HOP-92 NSCLC): 4.57 µM | TGI (MOLT-4 leukemia): 3.54 µM | TGI (OVCAR-4 ovarian): 1.27 µM | TGI (SK-MEL-28 melanoma): 14.3 µM | TGI (UACC-62 melanoma): 4.17 µM

O=C1/C(=C\c2ccc([N+](=O)[O-])cc2)Sc2scc(-c3ccc(O)c(O)c3)[n+]21
TGI (786-0 renal): 22.5 µM | TGI (COLO 205 colon): 6.07 µM | TGI (HOP-92 NSCLC): 31.8 µM | TGI (K-562 leukemia): > 100 µM | TGI (MOLT-4 leukemia): 51.3 µM | TGI (OVCAR-4 ovarian): 24.7 µM | TGI (SK-MEL-28 melanoma): 25 µM | TGI (SW-620 colon): 15 µM | TGI (U251 CNS): 20.5 µM | TGI (UACC-62 melanoma): 23.4 µM

Cc1nc2c(o1)C(=O)c1ccccc1C2=NC1CCCCC1N (stereo not given)
TGI (786-0 renal): 3.43 µM | TGI (COLO 205 colon): 3.08 µM | TGI (HOP-92 NSCLC): 1.97 µM | TGI (K-562 leukemia): > 100 µM | TGI (MOLT-4 leukemia): 1.46 µM | TGI (OVCAR-4 ovarian): 1.01 µM | TGI (SK-MEL-28 melanoma): 0.313 µM | TGI (SW-620 colon): 1.38 µM | TGI (U251 CNS): 1.32 µM | TGI (UACC-62 melanoma): 0.318 µM

COc1cc2cc(Oc3ccc(NC(=O)Nc4ccc(F)c(C(F)(F)F)c4)cc3)c(C)nc2cc1OCCN1CCCCC1
GI50 (HOP-92 NSCLC): 1.52 µM | TGI (HOP-92 NSCLC): 3.02 µM | GI50 (K-562 leukemia): 1.29 µM | TGI (K-562 leukemia): 3.79 µM | GI50 (OVCAR-4 ovarian): 1.6 µM | TGI (OVCAR-4 ovarian): 3.13 µM | GI50 (SK-MEL-28 melanoma): 1.65 µM | TGI (SK-MEL-28 melanoma): 3.04 µM | GI50 (UACC-62 melanoma): 1.71 µM | TGI (UACC-62 melanoma): 3.19 µM

O=C1NCC2(CCNCC2)N1c1ccccc1
TGI (786-0 renal): > 100 µM | TGI (COLO 205 colon): > 100 µM | TGI (HOP-92 NSCLC): > 100 µM | TGI (K-562 leukemia): > 100 µM | TGI (MOLT-4 leukemia): > 100 µM | TGI (OVCAR-4 ovarian): > 100 µM | TGI (SK-MEL-28 melanoma): > 100 µM | TGI (SW-620 colon): > 100 µM | TGI (U251 CNS): > 100 µM | TGI (UACC-62 melanoma): > 100 µM

CC(=O)OCCC1c2ccccc2-n2nc(-c3ccccc3)c(O)c21 (stereo not given)
TGI (786-0 renal): 38.4 µM | TGI (COLO 205 colon): 40.1 µM | TGI (HOP-92 NSCLC): 27.4 µM | TGI (K-562 leukemia): 37.7 µM | TGI (MOLT-4 leukemia): 56.3 µM | TGI (OVCAR-4 ovarian): 40.5 µM | TGI (SK-MEL-28 melanoma): 30.6 µM | TGI (SW-620 colon): 31.6 µM | TGI (U251 CNS): 26.7 µM

CN(C)CCOc1ccc(I)cc1Cc1ccccc1
TGI (786-0 renal): 23 µM | TGI (COLO 205 colon): 26.7 µM | TGI (K-562 leukemia): 11.2 µM | TGI (MOLT-4 leukemia): 20.2 µM | TGI (OVCAR-4 ovarian): 24.6 µM | TGI (SK-MEL-28 melanoma): 16.6 µM | TGI (SW-620 colon): 32.4 µM | TGI (U251 CNS): 27.1 µM | TGI (UACC-62 melanoma): 13.1 µM

CC(NC1=CC(=O)c2ncccc2C1=O)C(O)c1ccccc1 (stereo not given)
TGI (786-0 renal): 26.2 µM | TGI (COLO 205 colon): 29.7 µM | TGI (HOP-92 NSCLC): 27.9 µM | TGI (K-562 leukemia): 13.2 µM | TGI (MOLT-4 leukemia): 41.8 µM | TGI (OVCAR-4 ovarian): 22.3 µM | TGI (SK-MEL-28 melanoma): 10.9 µM | TGI (SW-620 colon): 19.8 µM | TGI (U251 CNS): 14.3 µM

O=C(CCCN1CCC2(CC1)C(=O)NC(=O)N2c1ccccc1)c1ccc(F)cc1
TGI (786-0 renal): > 100 µM | TGI (COLO 205 colon): > 100 µM | TGI (HOP-92 NSCLC): > 100 µM | TGI (MOLT-4 leukemia): > 100 µM | TGI (OVCAR-4 ovarian): > 100 µM | TGI (SK-MEL-28 melanoma): > 100 µM | TGI (SW-620 colon): > 100 µM | TGI (U251 CNS): > 100 µM | TGI (UACC-62 melanoma): > 100 µM

CC(=O)OC1/C(=C/c2ccc([N+](=O)[O-])cc2)C[C@H]2[C@@H]3CC=C4C[C@@H](OC(C)=O)CC[C@]4(C)[C@H]3CC[C@]12C (stereo not given in full)
TGI (786-0 renal): > 100 µM | TGI (COLO 205 colon): > 100 µM | TGI (HOP-92 NSCLC): > 100 µM | TGI (OVCAR-4 ovarian): > 100 µM | TGI (SK-MEL-28 melanoma): > 100 µM | TGI (SW-620 colon): > 100 µM | TGI (U251 CNS): > 100 µM | TGI (UACC-62 melanoma): > 100 µM

COC(=O)C1Cc2ccc(C)cc2C1=O (stereo not given)
TGI (786-0 renal): > 100 µM | TGI (COLO 205 colon): > 100 µM | TGI (K-562 leukemia): > 100 µM | TGI (MOLT-4 leukemia): > 100 µM | TGI (OVCAR-4 ovarian): > 100 µM | TGI (SK-MEL-28 melanoma): > 100 µM | TGI (SW-620 colon): > 100 µM | TGI (U251 CNS): > 100 µM | TGI (UACC-62 melanoma): > 100 µM

CC(=O)N1c2ccccc2C(C)(C)OC1C(Cl)(Cl)Cl (stereo not given)
TGI (786-0 renal): > 100 µM | TGI (COLO 205 colon): > 100 µM | TGI (HOP-92 NSCLC): 78.9 µM | TGI (MOLT-4 leukemia): 35.5 µM | TGI (OVCAR-4 ovarian): > 100 µM | TGI (SK-MEL-28 melanoma): > 100 µM | TGI (SW-620 colon): > 100 µM | TGI (U251 CNS): > 100 µM | TGI (UACC-62 melanoma): > 100 µM
